Measured values as given in the supplement of paper PMC10331698.
± gives the standard deviation of the averaged measurements.

Experiments:
Assay in all cases: level (log10 ratio to DMSO vehicle control); higher = higher biomarker level / cell amount than vehicle control
[1] = compound: C=C(C)C(=O)OCCC(F)(F)C(F)(F)C(F)(F)C(F)(F)C(F)(F)C(F)(F)C(F)(F)C(F)(F)F [8:2 Fluorotelomer methacrylate] (in DMSO)
Description: (§1)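 BioMAP Diversity Plus panel of 12 human primary cell co-culture systems (3C, 4H, LPS, SAg, BT, BF4T, BE3C, CASM3C, HDF3CGF, KF3CT, MyoF, Mphg). Compounds were added 1 h before stimulation and left for 24 h (MyoF 48 h; BT 72 h for soluble read-outs or 6 d for IgG). Biomarkers were read by ELISA, cytotoxicity by SRB, PBMC viability and proliferation by Alamar Blue. Each well value was divided by the mean of 8 DMSO control wells on the same plate and log10 transformed; duplicate blinded samples were tested at 4 concentrations.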

[2] = compound: CO[Si](C)(CCC(F)(F)C(F)(F)C(F)(F)C(F)(F)C(F)(F)C(F)(F)F)OC [Dimethoxymethyl((perfluorohexyl)ethyl)silane] (in DMSO)
Description: as §1

[3] = compound: NS(=O)(=O)C(F)(F)C(F)(F)C(F)(F)C(F)(F)C(F)(F)C(F)(F)C(F)(F)C(F)(F)F [Perfluorooctanesulfonamide] (in DMSO)
Description: as §1

[4] = compound: O=C(O)C(F)(F)C(F)(F)C(F)(F)C(F)(F)C(F)(F)C(F)(F)C(F)(F)C(F)(F)F [Perfluorononanoic acid] (in DMSO)
Description: as §1

[5] = compound: O=C(O)C(F)(F)OC(F)(F)C(F)(F)OC(F)(F)C(F)(F)OC(F)(F)C(F)(F)C(F)(F)C(F)(F)F [Perfluoro-3,6,9-trioxatridecanoic acid] (in DMSO); conditions: 6700 nM
Description: as §1

[6] = compound: O=C(O)C(F)(OC(F)(F)C(F)(F)C(F)(F)F)C(F)(F)F [Ammonium perfluoro-2-methyl-3-oxahexanoate] (in Water)
Description: as §1

[7] = compound: O=S(=O)(O)C(F)(F)C(F)(F)OC(F)(F)C(F)(F)F [Perfluoro(2-ethoxyethane)sulfonic acid] (in DMSO)
Description: as §1

[8] = compound: OCC(F)(F)C(F)(F)C(F)(F)C(F)F [1H,1H,5H-Perfluoropentanol] (in DMSO)
Description: as §1

| Test System | level (log10) ([1]; 6700 nM) | level (log10) ([1]; 20000 nM) | level (log10) ([2]; 6700 nM) | level (log10) ([2]; 20000 nM) | level (log10) ([3]; 6700 nM) | level (log10) ([3]; 20000 nM) | level (log10) ([4]; 6700 nM) | level (log10) ([4]; 20000 nM) | level (log10) [5] | level (log10) ([6]; 6700 nM) | level (log10) ([6]; 20000 nM) | level (log10) ([6]; 60000 nM) | level (log10) ([7]; 6700 nM) | level (log10) ([7]; 20000 nM) | level (log10) ([7]; 60000 nM) | level (log10) ([8]; 6700 nM) | level (log10) ([8]; 20000 nM) | level (log10) ([8]; 60000 nM) |
| --- | --- | --- | --- | --- | --- | --- | --- | --- | --- | --- | --- | --- | --- | --- | --- | --- | --- | --- |
| HDF3CGF:CCL2/MCP-1 | -0.0095 ± 0.016 | -0.012 ± 0.023 | -0.026 ± 0.034 | -0.008 ± 0.054 | -0.0105 ± 0.0064 | -0.567 ± 0.14 | 0.0235 ± 0.074 | -0.056 ± 0.055 | -0.274 ± 0.013 | 0.011 ± 0.025 | 0.0285 ± 0.0021 | 0.019 ± 0.0028 | 0.014 ± 0.0057 | 0.0175 ± 0.0078 | 0.035 ± 0.031 | -0.046 ± 0.027 | -0.014 ± 0.068 | -0.0225 ± 0.047 |
| HDF3CGF:CD54/ICAM-1 | 0.0035 ± 0.021 | 0.0055 ± 0.013 | -0.013 ± 0.0099 | -0.0125 ± 0.012 | -0.021 ± 0.0042 | -0.88 ± 0.26 | -0.031 ± 0.0099 | -0.033 ± 0.011 | -0.076 ± 0.016 | -0.0075 ± 0.015 | -0.0245 ± 0.005 | -0.0555 ± 0.012 | -0.0185 ± 0.0035 | -0.0205 ± 0.00071 | -0.012 ± 0.018 | 0 | -0.01 ± 0.0014 | 0.009 ± 0.023 |
| HDF3CGF:CD106/VCAM-1 | -0.0105 ± 0.013 | -0.052 ± 0.064 | -0.0175 ± 0.00071 | 0.001 ± 0.0085 | -0.147 ± 0.027 | -0.364 ± 0.023 | -0.02 ± 0.034 | -0.0225 ± 0.022 | -0.479 ± 0.037 | -0.039 ± 0.021 | -0.044 ± 0.027 | -0.131 ± 0.016 | -0.01 ± 0.05 | -0.0365 ± 0.09 | -0.016 ± 0.073 | -0.0535 ± 0.015 | 0.023 ± 0.048 | 0.0145 ± 0.043 |
| HDF3CGF:CXCL8/IL-8 | -0.0045 ± 0.0035 | -0.0025 ± 0.023 | -0.0055 ± 0.0035 | 0.01 ± 0.0028 | 0.004 ± 0.0085 | -0.204 ± 0.11 | -0.0065 ± 0.0064 | -0.001 ± 0.0099 | 0.003 ± 0.0042 | -0.0135 ± 0.015 | 0.001 ± 0.011 | 0.0045 ± 0.0035 | -0.015 ± 0.0028 | -0.0075 ± 0.0064 | 0.0045 ± 0.0035 | -0.0045 ± 0.0064 | -0.002 ± 0.0014 | 0.0095 ± 0.032 |
| HDF3CGF:CXCL9/MIG | -0.024 ± 0.0042 | -0.0275 ± 0.016 | -0.0005 ± 0.005 | -0.005 ± 0.035 | -0.203 ± 0.011 | -0.761 ± 0.11 | -0.04 ± 0.016 | -0.074 ± 0.02 | -0.196 ± 0.0035 | -0.011 ± 0.028 | -0.02 ± 0.014 | -0.016 ± 0.064 | 0.004 ± 0.0057 | 0.002 ± 0.0042 | -0.0055 ± 0.005 | 0.0035 ± 0.0021 | 0.0025 ± 0.025 | -0.0105 ± 0.022 |
| HDF3CGF:CXCL10/IP-10 | -0.029 ± 0.021 | -0.0425 ± 0.005 | -0.0105 ± 0.026 | -0.0165 ± 0.035 | -0.216 ± 0.011 | -0.893 ± 0.047 | -0.019 ± 0.024 | -0.061 ± 0.016 | -0.3805 ± 0.00071 | 0.002 ± 0.013 | -0.0085 ± 0.00071 | -0.0025 ± 0.012 | 0.0105 ± 0.033 | -0.0145 ± 0.05 | -0.0105 ± 0.056 | -0.0255 ± 0.019 | 0.0095 ± 0.0021 | 0.005 ± 0.018 |
| HDF3CGF:CXCL11/I-TAC | -0.0105 ± 0.025 | -0.0715 ± 0.013 | -0.026 | -0.035 ± 0.014 | -0.111 ± 0.013 | -0.492 ± 0.028 | 0.018 ± 0.013 | 0.0285 ± 0.018 | -0.149 ± 0.013 | 0.002 ± 0.0057 | -0.0045 ± 0.019 | 0.002 ± 0.0099 | 0.0165 ± 0.022 | 0.0055 ± 0.021 | -0.0365 ± 0.063 | -0.0425 ± 0.028 | -0.023 ± 0.093 | 0.004 ± 0.051 |
| HDF3CGF:Collagen I | -0.0255 ± 0.029 | -0.001 ± 0.083 | 0.0095 ± 0.077 | 0.052 ± 0.038 | 0.08 ± 0.037 | -0.0535 ± 0.046 | 0.0345 ± 0.005 | -0.0715 ± 0.036 | -0.0565 ± 0.061 | -0.029 ± 0.031 | 0.0015 ± 0.005 | -0.0095 ± 0.0092 | -0.046 ± 0.024 | -0.037 ± 0.031 | 0.017 ± 0.055 | -0.0375 ± 0.039 | -0.0305 ± 0.037 | 0.0585 ± 0.021 |
| HDF3CGF:Collagen III | -0.032 ± 0.042 | -0.0325 ± 0.067 | -0.022 ± 0.035 | -0.0165 ± 0.07 | -0.0345 ± 0.012 | -0.449 ± 0.019 | -0.0705 ± 0.043 | -0.168 ± 0.02 | -0.236 ± 0.028 | -0.0055 ± 0.0064 | -0.015 ± 0.041 | -0.0705 ± 0.028 | -0.062 ± 0.12 | -0.08 ± 0.085 | -0.025 ± 0.16 | -0.0215 ± 0.036 | -0.0135 ± 0.019 | 0.037 ± 0.027 |
| HDF3CGF:EGFR | -0.048 ± 0.071 | 0.0215 ± 0.091 | -0.0055 ± 0.005 | 0 ± 0.018 | -0.016 ± 0.014 | -0.171 ± 0.016 | 0.0115 ± 0.057 | -0.037 ± 0.013 | -0.101 ± 0.023 | -0.017 ± 0.014 | 0.0145 ± 0.026 | 0.0535 ± 0.005 | -0.035 ± 0.05 | -0.017 ± 0.042 | 0.0315 ± 0.07 | -0.0465 ± 0.033 | -0.0025 ± 0.028 | 0.022 ± 0.054 |
| HDF3CGF:M-CSF | -0.0295 ± 0.019 | -0.093 ± 0.013 | -0.039 ± 0.0028 | -0.02 ± 0.025 | -0.0605 ± 0.012 | -0.507 ± 0.07 | 0.0115 ± 0.025 | -0.028 ± 0.028 | -0.158 ± 0.016 | -0.0345 ± 0.00071 | -0.0245 ± 0.013 | -0.0595 ± 0.035 | 0.004 ± 0.011 | -0.0075 ± 0.0092 | -0.009 ± 0.016 | -0.0405 ± 0.067 | -0.034 ± 0.071 | -0.0205 ± 0.053 |
| HDF3CGF:MMP-1 | 0.013 ± 0.011 | 0.009 ± 0.018 | -0.0165 ± 0.018 | -0.005 ± 0.042 | 0.0145 ± 0.026 | -0.206 ± 0.096 | -0.008 ± 0.0099 | -0.012 ± 0.0042 | -0.134 ± 0.054 | 0.0035 ± 0.016 | 0.011 | 0.008 ± 0.0085 | -0.004 ± 0.0071 | -0.0135 ± 0.029 | -0.0235 ± 0.053 | 0.0075 ± 0.005 | 0.007 ± 0.0085 | 0.0105 ± 0.022 |
| HDF3CGF:PAI-I | -0.0305 ± 0.052 | -0.0635 ± 0.022 | -0.0035 ± 0.0092 | 0.0105 ± 0.015 | 0.005 ± 0.033 | -0.45 ± 0.26 | 0.037 ± 0.062 | 0.0765 ± 0.064 | -0.212 ± 0.0099 | -0.0825 ± 0.052 | -0.0995 ± 0.013 | -0.051 ± 0.054 | 0.025 ± 0.0014 | -0.003 ± 0.0071 | -0.021 ± 0.013 | -0.111 ± 0.12 | -0.047 ± 0.16 | -0.0365 ± 0.096 |
| HDF3CGF:Proliferation 72hr | -0.0395 ± 0.028 | -0.043 ± 0.069 | 0.02 ± 0.011 | 0.007 ± 0.037 | 0.0105 ± 0.036 | -0.58 ± 0.15 | 0.143 ± 0.036 | -0.182 ± 0.24 | -0.827 ± 0.29 | 0.0575 ± 0.057 | 0.0635 ± 0.066 | -0.0255 ± 0.056 | -0.0225 ± 0.021 | 0.004 ± 0.0042 | -0.067 ± 0.03 | -0.023 ± 0.058 | 0.035 ± 0.024 | 0.0065 ± 0.025 |
| HDF3CGF:SRB | -0.021 ± 0.055 | -0.0015 ± 0.046 | 0.0315 ± 0.025 | 0.0455 ± 0.036 | -0.028 ± 0.055 | 0.0615 ± 0.019 | 0.014 ± 0.0014 | -0.0155 ± 0.026 | -0.107 ± 0.0021 | -0.033 ± 0.02 | -0.0325 ± 0.0021 | -0.0175 ± 0.011 | -0.02 ± 0.0085 | -0.017 ± 0.013 | 0.0085 ± 0.1 | -0.0275 ± 0.0064 | -0.0025 ± 0.03 | -0.0015 ± 0.037 |
